Results as given in patent publication US10160762B2, “6-alkyl dihydropyrazolopyrimidinone compounds as PDE2 inhibitors” (Merck Sharp & Dohme Corp., priority 2015, dated 2018).

Biological target: T1, human PDE2A1 (Homo sapiens, UniProt O00408)
T1 construct: GST; purchased BPS Bioscience (San Diego, Calif.) 60020; host or cells: insect cells
Experiment: IMAP FP PDE assay, human PDE2A1
Format: biochemical
Conditions: Lab B; read-out: Human PDE2 Ki (nM) Lab B
In short: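 GST-tagged human PDE2A1 from insect cells; substrate 50 nM FAM-cAMP containing 1000 nM cGMP in Tris pH 7.2/MgCl2/DTT buffer, enzyme giving 20% conversion. 60 min at room temperature, IMAP binding reagent, fluorescence polarization read. Apparent Ki from FP readings using apparent KM 10,000 nM; ten-point 3-fold titrations.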

T1 sequence (O00408 1-920 isoform O00408-2): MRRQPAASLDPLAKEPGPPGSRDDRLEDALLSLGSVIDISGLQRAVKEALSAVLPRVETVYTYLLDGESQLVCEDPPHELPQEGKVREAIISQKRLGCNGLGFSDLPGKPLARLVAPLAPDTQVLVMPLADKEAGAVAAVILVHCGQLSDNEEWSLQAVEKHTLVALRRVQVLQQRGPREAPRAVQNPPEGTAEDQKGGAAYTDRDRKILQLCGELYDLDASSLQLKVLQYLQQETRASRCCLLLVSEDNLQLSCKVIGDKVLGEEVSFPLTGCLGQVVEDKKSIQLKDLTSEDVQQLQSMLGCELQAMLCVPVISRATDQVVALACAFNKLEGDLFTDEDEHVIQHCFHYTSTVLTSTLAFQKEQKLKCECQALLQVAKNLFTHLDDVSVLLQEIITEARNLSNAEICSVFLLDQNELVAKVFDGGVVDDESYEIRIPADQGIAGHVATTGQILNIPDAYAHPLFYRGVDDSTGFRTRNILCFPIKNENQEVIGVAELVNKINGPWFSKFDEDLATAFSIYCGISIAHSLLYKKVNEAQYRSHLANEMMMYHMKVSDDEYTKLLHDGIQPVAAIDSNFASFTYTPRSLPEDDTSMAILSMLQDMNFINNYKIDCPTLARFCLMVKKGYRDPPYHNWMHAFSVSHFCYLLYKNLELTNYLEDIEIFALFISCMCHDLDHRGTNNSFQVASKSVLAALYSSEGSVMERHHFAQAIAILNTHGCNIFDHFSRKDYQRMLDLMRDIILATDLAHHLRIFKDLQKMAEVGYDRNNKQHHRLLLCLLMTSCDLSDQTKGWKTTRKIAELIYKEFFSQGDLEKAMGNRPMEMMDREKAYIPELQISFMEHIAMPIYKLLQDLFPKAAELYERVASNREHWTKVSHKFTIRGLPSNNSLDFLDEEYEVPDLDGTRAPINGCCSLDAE

Question: For `Cc1nc2c(c(CO)nn2C(c2ccc(OC(F)(F)F)c(F)c2)C2CC2)c(=O)[nH]1` (single isomer, unassigned) [Example 93, (S)- or (R)-1-(Cyclopropyl(3-fluoro-4-(trifluoromethoxy)phenyl)methyl)-3-(hydroxymethyl)-6-methyl-1H-pyrazolo[3,4-d]pyrimidin-4(5H)-one], which Ki is on record?
Answer: 1.7 nM

Question: `CC(c1ccc(C(F)(F)F)cc1)n1nc(CO)c2c(=O)[nH]c(C(F)F)nc21` (centres unmarked) [Example 284, 6-(Difluoromethyl)-3-(hydroxymethyl)-1-(1-(4-(trifluoromethyl)phenyl)ethyl)-1H-pyrazolo[3,4-d]pyrimidin-4(5H)-one] was tested. Which Ki did it give?
Answer: 64 nM

Question: How did the Ki turn out when `COc1cccc(Cc2nc3c(c(CF)nn3C(C)c3ccc(C(F)(F)F)cc3)c(=O)[nH]2)c1` (single isomer, unassigned) [Example 221, (S)- or (R)-3-(Fluoromethyl)-6-(3-methoxybenzyl)-1-(1-(4-(trifluoromethyl)phenyl)ethyl)-1H-pyrazolo[3,4-d]pyrimidin-4(5H)-one] was run?
Answer: 1.3 nM

Question: How did the Ki turn out when `Cc1nc2c(c(CO)nn2C(c2ccc(OC(F)(F)F)c(F)c2)C2CC2)c(=O)[nH]1` (single isomer, unassigned) [Example 92, (R)- or (S)-1-(Cyclopropyl(3-fluoro-4-(trifluoromethoxy)phenyl)methyl)-3-(hydroxymethyl)-6-methyl-1H-pyrazolo[3,4-d]pyrimidin-4(5H)-one] was run?
Answer: 8.3 nM

Question: `Cc1nc2c(c(CO)nn2C(C)c2ccc(SC(F)(F)F)cc2)c(=O)[nH]1` (single isomer, unassigned) [Example 23, (S)- or (R)-3-(Hydroxymethyl)-6-methyl-1-(1-(4-(trifluoromethylthio)phenyl)ethyl)-1H-pyrazolo[3,4-d]pyrimidin-4(5H)-one] was tested. Which Ki did it give?
Answer: 1.1 nM

Question: For `COc1ccc(Cc2nc3c(c(CF)nn3C(C)c3ccc(C(F)(F)F)cc3)c(=O)[nH]2)cc1` (single isomer, unassigned) [Example 219, (S)- or (R)-3-(Fluoromethyl)-6-(4-methoxybenzyl)-1-(1-(4-(trifluoromethyl)phenyl)ethyl)-1H-pyrazolo[3,4-d]pyrimidin-4(5H)-one], which Ki is on record?
Answer: 0.96 nM

Question: With `Cc1nc2c(c(/C=N\O)nn2C(C)c2ccc(C(F)(F)F)cc2)c(=O)[nH]1` (centres unmarked) [Example 251, (Z)-6-Methyl-4-oxo-1-(1-(4-(trifluoromethyl)phenyl)ethyl)-4,5-dihydro-1H-pyrazolo[3,4-d]pyrimidine-3-carbaldehyde oxime] as the compound, how does the Ki read?
Answer: 7.2 nM

Question: How did the Ki turn out when `COCc1nc2c(c(CO)nn2C(C)c2ccc(C(F)(F)F)cc2)c(=O)[nH]1` (single isomer, unassigned) [Example 293] was run?
Answer: 3.5 nM

Question: With `Cc1nc2c(c(C=O)nn2C(C)c2ccc(C(F)(F)F)cc2)c(=O)[nH]1` (centres unmarked) [Example 248, 6-Methyl-4-oxo-1-(1-(4-(trifluoromethyl)phenyl)ethyl)-4,5-dihydro-1H-pyrazolo[3,4-d]pyrimidine-3-carbaldehyde] as the compound, how does the Ki read?
Answer: 66 nM

Question: `Cc1nc2c(c(CO)nn2C(c2ccc(OC(F)(F)F)cc2)C(C)C)c(=O)[nH]1` (single isomer, unassigned) [Example 85, (S)- or (R)-3-(Hydroxymethyl)-6-methyl-1-(2-methyl-1-(4-(trifluoromethoxy)phenyl)propyl)-1H-pyrazolo[3,4-d]pyrimidin-4(5H)-one] was tested. Which Ki did it give?
Answer: 0.89 nM

Question: Which Ki does the source give for `Cc1nc2c(c(CO)nn2C(c2ccc(C(F)(F)F)c(F)c2)C(C)C)c(=O)[nH]1` (single isomer, unassigned) [Example 87, (S)- or (R)-1-(1-(3-Fluoro-4-(trifluoromethyl)phenyl)-2-methylpropyl)-3-(hydroxymethyl)-6-methyl-1H-pyrazolo[3,4-d]pyrimidin-4(5H)-one] here?
Answer: 3.3 nM

Question: With `Cc1nc2c(c(CC(F)(F)F)nn2C(c2ccc(C(F)(F)F)cc2)C2(C)CC2)c(=O)[nH]1` (single isomer, unassigned) [Example 59, (S)- or (R)-6-Methyl-1-((1-methylcyclopropyl)(4-(trifluoromethyl)phenyl)methyl)-3-(2,2,2-trifluoroethyl)-1H-pyrazolo[3,4-d]pyrimidin-4(5H)-one] as the compound, how does the Ki read?
Answer: 23 nM

Question: For `Cc1nc2c(c(CO)nn2C(c2ccc(OC(F)(F)F)cc2)C(C)C)c(=O)[nH]1` (single isomer, unassigned) [Example 84, (R)- or (S)-3-(Hydroxymethyl)-6-methyl-1-(2-methyl-1-(4-(trifluoromethoxy)phenyl)propyl)-1H-pyrazolo[3,4-d]pyrimidin-4(5H)-one], which Ki is on record?
Answer: 11 nM

Question: With `Cc1nc2c(c(CO)nn2C(c2ccc(C(F)(F)F)cc2)C2(C)CC2)c(=O)[nH]1` (single isomer, unassigned) [Example 24, (R)- or (S)-3-(Hydroxymethyl)-6-methyl-1-((1-methylcyclopropyl)(4-(trifluoromethyl)phenyl)methyl)-1H-pyrazolo[3,4-d]pyrimidin-4(5H)-one] as the compound, how does the Ki read?
Answer: 1.9 nM

Question: With `Cc1nc2c(c(CF)nn2C(c2ccc(C(F)(F)F)cc2)C(C)(C)C)c(=O)[nH]1` (single isomer, unassigned) [Example 234, (S)- or (R)-1-(2,2-Dimethyl-1-(4-(trifluoromethyl)phenyl)propyl)-3-(fluoromethyl)-6-methyl-1H-pyrazolo[3,4-d]pyrimidin-4(5H)-one] as the compound, how does the Ki read?
Answer: 11 nM

Question: Which Ki does the source give for `Cc1nc2c(c(CC(F)(F)F)nn2C(c2ccc(C(F)(F)F)cc2)C(C)(C)C)c(=O)[nH]1` (single isomer, unassigned) [Example 57, (S)- or (R)-1-(2,2-Dimethyl-1-(4-(trifluoromethyl)phenyl)propyl)-6-methyl-3-(2,2,2-trifluoroethyl)-1H-pyrazolo[3,4-d]pyrimidin-4(5H)-one] here?
Answer: 62 nM

Question: How did the Ki turn out when `Cc1nc2c(c(CO)nn2C(C)c2ccc(C(F)(F)F)cc2F)c(=O)[nH]1` (single isomer, unassigned) [Example 17, (S)- or (R)-1-(1-(2-Fluoro-4-(trifluoromethyl)phenyl)ethyl)-3-(hydroxymethyl)-6-methyl-1H-pyrazolo[3,4-d]pyrimidin-4(5H)-one] was run?
Answer: 2.1 nM

Question: For `Cc1nc2c(c(CF)nn2C(c2ccc(C(F)(F)F)c(F)c2)C2CC2)c(=O)[nH]1` (single isomer, unassigned) [Example 226, (R)- or (S)-1-(Cyclopropyl(3-fluoro-4-(trifluoromethyl)phenyl)methyl)-3-(fluoromethyl)-6-methyl-1,5-dihydro-4H-pyrazolo[3,4-d]pyrimidin-4-one], which Ki is on record?
Answer: 0.32 nM

Question: For `Cc1nc2c(c(CO)nn2C(c2ccc(C(F)(F)F)c(F)c2)C2CC2)c(=O)[nH]1` (single isomer, unassigned) [Example 91, (S)- or (R)-1-(Cyclopropyl(3-fluoro-4-(trifluoromethyl)phenyl)methyl)-3-(hydroxymethyl)-6-methyl-1H-pyrazolo[3,4-d]pyrimidin-4(5H)-one], which Ki is on record?
Answer: 1.1 nM

Question: `CC(C)c1nc2c(c(CO)nn2C(C)c2ccc(C(F)(F)F)cc2)c(=O)[nH]1` (racemic) [Example 296, 3-(Hydroxymethyl)-6-(1-methylethyl)-1-{1-[4-(trifluoromethyl)phenyl]ethyl}-1,5-dihydro-4H-pyrazolo[3,4-d]pyrimidin-4-one] was tested. Which Ki did it give?
Answer: 39 nM

Question: For `Cc1nc2c(c(CF)nn2C(c2ccc(OC(F)(F)F)c(F)c2)C2CC2)c(=O)[nH]1` (single isomer, unassigned) [Example 228, (R)- or (S)-1-(Cyclopropyl(3-fluoro-4-(trifluoromethoxy)phenyl)methyl)-3-(fluoromethyl)-6-methyl-1,5-dihydro-4H-pyrazolo[3,4-d]pyrimidin-4-one], which Ki is on record?
Answer: 0.42 nM

Question: `Cc1nc2c(c(CO)nn2C(c2ccc(C(C)(C)C)cc2)C2CC2)c(=O)[nH]1` (single isomer, unassigned) [Example 89, (S)- or (R)-1-((4-tert-Butylphenyl)(cyclopropyl)methyl)-3-(hydroxymethyl)-6-methyl-1H-pyrazolo[3,4-d]pyrimidin-4(5H)-one] was tested. Which Ki did it give?
Answer: 0.33 nM

Question: How did the Ki turn out when `Cc1nc2c(c(CC#N)nn2C(C)c2ccc(C(F)(F)F)cc2)c(=O)[nH]1` (single isomer, unassigned) [Example 281] was run?
Answer: 2 nM

Question: With `Cc1nc2c(c(CF)nn2C(c2ccc(OC(F)(F)F)cc2)C2CC2)c(=O)[nH]1` (single isomer, unassigned) [Example 224, (R)- or (S)-1-(Cyclopropyl(4-(trifluoromethoxy)phenyl)methyl)-3-(fluoromethyl)-6-methyl-1,5-dihydro-4H-pyrazolo[3,4-d]pyrimidin-4-one] as the compound, how does the Ki read?
Answer: 0.48 nM

Question: How did the Ki turn out when `Cc1nc2c(c(CC(F)F)nn2C(C)c2ccc(C(F)(F)F)cc2)c(=O)[nH]1` (single isomer, unassigned) [Example 286] was run?
Answer: 2 nM

Question: For `Cc1nc2c(c(CO)nn2C(C)c2ccc(C(F)(F)F)cc2Cl)c(=O)[nH]1` (single isomer, unassigned) [Example 19, (S)- or (R)-1-(1-(2-Chloro-4-(trifluoromethyl)phenyl)ethyl)-3-(hydroxymethyl)-6-methyl-1H-pyrazolo[3,4-d]pyrimidin-4(5H)-one], which Ki is on record?
Answer: 1.8 nM

Question: For `Cc1nc2c(c(CO)nn2C(C)c2ccc(S(F)(F)(F)(F)F)cc2)c(=O)[nH]1` (single isomer, unassigned) [Example 77], which Ki is on record?
Answer: 3.3 nM

Question: For `Cc1nc2c(c(CC(F)F)nn2C(C)c2ccc(C(F)(F)F)cc2)c(=O)[nH]1` (single isomer, unassigned) [Example 285], which Ki is on record?
Answer: 111 nM

Question: With `Cc1nc2c(c(C#N)nn2C(C)c2ccc(C(F)(F)F)cc2)c(=O)[nH]1` (single isomer, unassigned) [Example 252] as the compound, how does the Ki read?
Answer: 16 nM

Question: How did the Ki turn out when `Cc1nc2c(c(CO)nn2C(c2ccc(C(F)(F)F)cc2)C(C)(C)C)c(=O)[nH]1` (single isomer, unassigned) [Example 83, (S)- or (R)-1-(2,2-Dimethyl-1-(4-(trifluoromethyl)phenyl)-propyl)-3-(hydroxymethyl)-6-methyl-1H-pyrazolo[3,4-d]pyrimidin-4(5H)-one] was run?
Answer: 7.6 nM

Question: For `COCc1nn(C(C)c2ccc(C(F)(F)F)cc2)c2nc(C)[nH]c(=O)c12` (single isomer, unassigned) [Example 279], which Ki is on record?
Answer: 17 nM

Question: How did the Ki turn out when `Cc1nc2c(c(C(F)(F)CO)nn2C(C)c2ccc(C(F)(F)F)cc2)c(=O)[nH]1` (single isomer, unassigned) [Example 255] was run?
Answer: 1.6 nM
